Results reported in patent US6509369B2, “Anti-inflammatory compounds” (Ortho-McNeil Pharmaceutical, Inc., priority 1997, dated 2003).

molecular target: T1, human glucocorticoid receptor (hGR) (Homo sapiens, UniProt P04150); assay: human glucocorticoid receptor binding assay (displacement of 3(H) Triamcinolone acetonide)
T1 construct: made in house; host or cells: Sf21 insect cells infected with baculovirus hGR, OR IM9 lymphoblast cell line (endogenous hGR)
T1 sequence (P04150 1-777): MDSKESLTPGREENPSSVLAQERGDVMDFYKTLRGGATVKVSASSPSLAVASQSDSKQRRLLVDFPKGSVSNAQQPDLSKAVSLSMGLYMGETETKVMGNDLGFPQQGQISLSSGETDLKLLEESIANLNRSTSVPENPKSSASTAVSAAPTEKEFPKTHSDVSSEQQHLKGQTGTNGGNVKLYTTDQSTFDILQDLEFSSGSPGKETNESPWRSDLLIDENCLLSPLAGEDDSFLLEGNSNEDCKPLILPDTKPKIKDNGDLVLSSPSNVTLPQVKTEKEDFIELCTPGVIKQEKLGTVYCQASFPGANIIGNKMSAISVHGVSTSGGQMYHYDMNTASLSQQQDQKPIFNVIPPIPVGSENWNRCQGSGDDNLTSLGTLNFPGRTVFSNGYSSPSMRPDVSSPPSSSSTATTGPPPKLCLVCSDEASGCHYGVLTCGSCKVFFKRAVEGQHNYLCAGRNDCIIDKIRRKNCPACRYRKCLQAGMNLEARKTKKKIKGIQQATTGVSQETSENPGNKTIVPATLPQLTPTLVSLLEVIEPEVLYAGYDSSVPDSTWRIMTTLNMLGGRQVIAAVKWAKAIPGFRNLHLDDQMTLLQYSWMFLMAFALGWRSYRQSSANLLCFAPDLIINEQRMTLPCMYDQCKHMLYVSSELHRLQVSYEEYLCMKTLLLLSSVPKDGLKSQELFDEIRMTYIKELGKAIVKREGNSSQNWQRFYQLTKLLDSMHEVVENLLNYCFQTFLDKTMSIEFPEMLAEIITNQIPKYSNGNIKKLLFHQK
Procedure: A human glucocorticoid receptor binding assay was carried out to determine the extent to which the compounds of this invention have the ability to bind to human glucocorticoid receptors. This binding ability may be indicative of the antiinflammatory activity of the compound. The test was carried out as follows.
Human glucocorticoid receptors were prepared from either insect cells (Sf21) infected with baculovirus hGR or from a lymphoblast cell line which expresses high levels of endogenous hGR (IM9). The receptor binding reactions, with or without test compounds, were set up in 96-well microtiter plates which were previously siliconized with SIGMACOTE™, a chlorinated organopolysiloxane in heptane. The binding components, 3(H) Triamcinolone acetonide (TAA), glycerol/molybdate-containing buffer and unlabeled compounds were added to the wells using a combination of BIOMEK laboratory automation system and repeat pipettes. After four hours of incubation, the samples were precipitated with polyethylene glycol and filtered through Whatman GF/F paper using a TOMTEK cell harvester. The filter mate with 96 samples were bound to a solid-phase scintillant and directly counted in a BETAPLATE counter. […] The activity of test compounds to displace 3(H) TAA binding to hGR is also expressed as percent inhibition at 1 μM.

| Structure (SMILES) | IC50 [nM] |
| --- | --- |
| O=C(Cc1ccccc1Cl)NCC(c1ccccc1)C(c1ccccc1)c1ccccc1 (stereo not shown) [Compound 2] | 134 |
| O=C(Cc1ccc(Cl)cc1)NCC(c1ccccc1)C(c1ccccc1)c1ccccc1 (stereo not shown) [Compound 3] | 480 |
| Cc1ccc(CC(=O)NCC(c2ccccc2)C(c2ccccc2)c2ccccc2)cc1 (stereo not shown) [Compound 4] | 528 |
| COc1ccc(CC(=O)NCC(c2ccccc2)C(c2ccccc2)c2ccccc2)cc1OC (stereo not shown) [Compound 7] | 910 |
| O=C(Cc1c(Cl)cccc1Cl)NCC(c1ccccc1)C(c1ccccc1)c1ccccc1 (stereo not shown) [Compound 8] | 340 |
| O=C(Cc1ccccc1C(F)(F)F)NCC(c1ccccc1)C(c1ccccc1)c1ccccc1 (stereo not shown) [Compound 10] | 780 |
| O=C(Cc1cccc(C(F)(F)F)c1)NCC(c1ccccc1)C(c1ccccc1)c1ccccc1 (stereo not shown) [Compound 11] | 830 |
| O=C(Cc1ccc(C(F)(F)F)cc1)NCC(c1ccccc1)C(c1ccccc1)c1ccccc1 (stereo not shown) [Compound 12] | 1500 |
| O=C(Cc1ccccc1)NCC(c1ccc(Cl)cc1)C(c1ccccc1)c1ccccc1 (stereo not shown) [Compound 14] | 72 |
| O=C(Cc1ccccc1)NCC(c1ccccc1)C(c1ccc(F)cc1)c1ccc(F)cc1 (stereo not shown) [Compound 18, N-[3,3-bis-(4-fluorophenyl)-2-phenylpropyl]-2-phenylacetamide] | 610 |
| O=C(CCc1ccccc1)NCC(c1ccccc1)C(c1ccccc1)c1ccccc1 (stereo not shown) [Compound 19] | 141 |
| COc1ccccc1CCC(=O)NCC(c1ccccc1)C(c1ccccc1)c1ccccc1 (stereo not shown) [Compound 20] | 58 |
| O=C(CCCc1ccccc1)NCC(c1ccccc1)C(c1ccccc1)c1ccccc1 (stereo not shown) [Compound 24] | 670 |
| O=C(Cc1cccs1)NCC(c1ccc(Cl)cc1)C(c1ccccc1)c1ccccc1 (stereo not shown) [Compound 34] | 21 |
| O=C(Cc1ccsc1)NCC(c1ccccc1)C(c1ccccc1)c1ccccc1 (stereo not shown) [Compound 36] | 25 |
| O=C(CCCc1cccs1)NCC(c1ccccc1)C(c1ccccc1)c1ccccc1 (stereo not shown) [Compound 37] | 500 |
| O=S(=O)(NCC(c1ccccc1)C(c1ccccc1)c1ccccc1)c1cccs1 (stereo not shown) [Compound 40] | 151 |
| O=C(NCC(c1ccccc1)C(c1ccccc1)c1ccccc1)c1ccsc1 (stereo not shown) [Compound 42] | 68 |
| O=C(NCC(c1ccccc1)C(c1ccccc1)c1ccccc1)c1cccs1 (stereo not shown) [Compound 45] | 31 |
| O=C(Cc1c[nH]c2ccccc12)NCC(c1ccccc1)C(c1ccccc1)c1ccccc1 (stereo not shown) [Compound 47] | 416 |

system: human progesterone receptor (hPR); assay: human progesterone receptor binding assay (displacement of 3(H) R5020 Promegestone)
Procedure: A human progesterone receptor binding assay was performed in order to determine selectivity of the compounds, as follows. Human progesterone receptors were prepared from either insect cells (SF21) infected with baculovirus hPR A, or from a breast cancer cell line, T47D, which expresses high levels of endogenous hPR. The receptor binding reactions, with or without test compounds, were set up in 96-well microtiter plates which were previously siliconized with SIGMACOTE. The binding components, 3(H) R5020 Promegestone, a high affinity ligand for the progesterone receptors, glycerol/molybdate-containing buffer and unlabeled compounds were added to the wells using a combination of BIOMEK laboratory automation system and repeat pipettes. After overnight incubation, the samples were precipitated with polyethylene glycol and filtered through Whatman GF/F paper using a TOMTEK cell harvester. The filter mate with 96 samples were bound to a solid-phase scintillant and directly counted in the BETAPLATE counter. Only those compounds that were active in the human glucocorticoid receptor assay set forth in Example 30 were used for progesterone receptor binding to determine cross-reactivity profiles, if any. The activity of test compounds to displace 3(H) R5020 binding to hPR is expressed as percent inhibition at the two concentrations, 10^−6 and 10^−5 Molar.

| Structure (SMILES) | hPR % inh 10 μM [%] |
| --- | --- |
| O=C(Cc1ccccc1Cl)NCC(c1ccccc1)C(c1ccccc1)c1ccccc1 (stereo not shown) [Compound 2] | −23 |
| O=C(Cc1ccc(Cl)cc1)NCC(c1ccccc1)C(c1ccccc1)c1ccccc1 (stereo not shown) [Compound 3] | 4 |
| Cc1ccc(CC(=O)NCC(c2ccccc2)C(c2ccccc2)c2ccccc2)cc1 (stereo not shown) [Compound 4] | 12 |
| COc1ccc(CC(=O)NCC(c2ccccc2)C(c2ccccc2)c2ccccc2)cc1OC (stereo not shown) [Compound 7] | 11.6 |
| O=C(Cc1c(Cl)cccc1Cl)NCC(c1ccccc1)C(c1ccccc1)c1ccccc1 (stereo not shown) [Compound 8] | 3 |
| O=C(Cc1ccccc1C(F)(F)F)NCC(c1ccccc1)C(c1ccccc1)c1ccccc1 (stereo not shown) [Compound 10] | 15 |
| O=C(Cc1cccc(C(F)(F)F)c1)NCC(c1ccccc1)C(c1ccccc1)c1ccccc1 (stereo not shown) [Compound 11] | 20 |
| O=C(Cc1ccc(C(F)(F)F)cc1)NCC(c1ccccc1)C(c1ccccc1)c1ccccc1 (stereo not shown) [Compound 12] | 15 |
| O=C(Cc1ccccc1)NCC(c1ccc(Cl)cc1)C(c1ccccc1)c1ccccc1 (stereo not shown) [Compound 14] | 18 |
| O=C(Cc1ccccc1)NCC(c1ccccc1)C(c1ccc(F)cc1)c1ccc(F)cc1 (stereo not shown) [Compound 18, N-[3,3-bis-(4-fluorophenyl)-2-phenylpropyl]-2-phenylacetamide] | 14.1 |
| O=C(CCc1ccccc1)NCC(c1ccccc1)C(c1ccccc1)c1ccccc1 (stereo not shown) [Compound 19] | 24 |
| COc1ccccc1CCC(=O)NCC(c1ccccc1)C(c1ccccc1)c1ccccc1 (stereo not shown) [Compound 20] | 9 |
| O=C(CCCc1ccccc1)NCC(c1ccccc1)C(c1ccccc1)c1ccccc1 (stereo not shown) [Compound 24] | 10 |
| O=C(Cc1cccs1)NCC(c1ccc(Cl)cc1)C(c1ccccc1)c1ccccc1 (stereo not shown) [Compound 34] | 17 |
| O=C(Cc1ccsc1)NCC(c1ccccc1)C(c1ccccc1)c1ccccc1 (stereo not shown) [Compound 36] | 22 |
| O=C(CCCc1cccs1)NCC(c1ccccc1)C(c1ccccc1)c1ccccc1 (stereo not shown) [Compound 37] | 4 |
| O=S(=O)(NCC(c1ccccc1)C(c1ccccc1)c1ccccc1)c1cccs1 (stereo not shown) [Compound 40] | 22 |
| O=C(NCC(c1ccccc1)C(c1ccccc1)c1ccccc1)c1ccsc1 (stereo not shown) [Compound 42] | 18 |
| O=C(NCC(c1ccccc1)C(c1ccccc1)c1ccccc1)c1cccs1 (stereo not shown) [Compound 45] | 5 |
| O=C(Cc1c[nH]c2ccccc12)NCC(c1ccccc1)C(c1ccccc1)c1ccccc1 (stereo not shown) [Compound 47] | 17 |
